Earlier results as cited in US6620425B1, “Food supplements and methods comprising lipoic acid and creatine” (Muscletech Research and Development Inc., priority 1998, dated 2003).

Assays:
[1] = insulin-sensitive individuals

Row | Molecule | improvement of glucose tolerance [1] | increase of the metabolic clearance rate of glucose (in diabetics) | the body's utilization of blood sugar (in type II diabetics)
1 | chromium | up to 50% | – | –
2 | O=C(O)CCCCC1CCSS1 (stereo not drawn) [lipoic acid, 6,8-dithio octanoic acid] | – | 50% | significantly increase
